A short description of series [1]: Se content in plasma during supplementation. The following applies: child with Protein Lysine Intolerance, additive 3 microgrammes Se daily for three weeks, selenite as second supplementation after 13 months, successive samples. On the procedure: (§1) For three weeks a quantity of 3 microgrammes of Se in the form of the additive according to the invention was administered daily to a child suffering from Protein Lysine Intolerance (PLI).

The test system of a further series is glutathione-peroxidase. As to the kind of experiment: In vivo effect of the additive on glutathione-peroxidase activity in plasma. Also on record: species or system human. The method, then: In vivo effect to the additive according to the invention on the glutathione-peroxidase activity in plasma.
as §1

Molecules are shown by their SMILES. Several values for one entry are separate records, joined by “and”; a condition that tells them apart may be missing. Equal values may be shown once.

With `O=[Se](O)O` [selenite], the Se-content in series [1] was 20 ng/mL and 22 ng/mL and 24 ng/mL and 23 ng/mL. For the same compound, in the series with glutathione-peroxidase (child with PLI, during supplementation), the “glutathione peroxidase activity in the plasma (change during supplementation, in words)” value was “no increase”. Moreover, in the series on glutathione-peroxidase (plasma, child with Protein Lysine Intolerance, additive 3 microgrammes Se daily for three weeks, selenite as second supplementation after 13 months, successive samples), the glutathione-peroxidase activity is 0.13 U/ml and 0.12 U/ml.
